Results published in publication PMC8041284, “Tunable Methacrylamides for Covalent Ligand Directed Release Chemistry” (Journal of the American Chemical Society, 2021).
Like-named read-outs stand apart in the source and are kept apart here. Where a SMILES comes first, the peptide text is derived from it. [ ]: non-standard residue; d: D form.

Biological target: BTK (Homo sapiens, UniProt Q06187)
Test: biochemical
[1] = read-out: BTK inhibition (%), 0.75 uM BTK, […] probe 3l, 15 min preincubation

Sequence of BTK (Q06187 402-655 limits assumed): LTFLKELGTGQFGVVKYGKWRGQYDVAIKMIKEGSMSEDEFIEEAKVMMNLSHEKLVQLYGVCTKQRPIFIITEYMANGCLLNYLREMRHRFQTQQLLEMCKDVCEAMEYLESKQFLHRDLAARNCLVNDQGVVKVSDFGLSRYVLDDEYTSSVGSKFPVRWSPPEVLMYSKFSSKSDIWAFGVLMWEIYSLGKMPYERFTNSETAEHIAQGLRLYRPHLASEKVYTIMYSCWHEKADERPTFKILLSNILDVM

Row | SMILES | inhibition at 10 µM [1] | inhibition at 10 µM (read-out: BTK inhibition (%))
1 | C[C@H](NC(=O)[C@@H](O)c1cc(F)cc(F)c1)C(=O)N[C@@H]1C(=O)N(C)c2ccccc2-c2ccccc21 [PCM-0095417] | 6.2% | –
2 | CC1(C)CC[C@]2(NC(=O)C(C)(F)F)CC[C@]3(C)[C@H](C(=O)C=C4[C@@]5(C)C=C(C#N)C(=O)C(C)(C)[C@@H]5CC[C@]43C)[C@@H]2C1 [PCM-0215505] | -10% | –
3 | CC1(C)O[C@@H]2C[C@H]3[C@@H]4C[C@H](F)C5=CC(=O)C=C[C@]5(C)[C@@]4(F)[C@@H](O)C[C@]3(C)[C@]2(C(=O)CO)O1 [PCM-0086270] | -17.1% | –
4 | CN(Cc1ccc(C(C)(C)C)cc1)Cc1cccc2ccccc12 [PCM-0086068] | 62.3% | –
5 | NC(=O)CN1CC(c2ccccc2)CC1=O (centres unmarked) [PCM-0216067] | – | 10%
6 | CCOc1ccccc1N=Nc1c(C)[nH]n(-c2nc(-c3ccccc3)cs2)c1=O [PCM-0215207] | -8.5% | –
7 | Cc1c[nH]c2nc(Nc3ccc(N4CCN(C)CC4)c(F)c3)nc(-c3cccc(CC#N)c3)c12 [PCM-0215633] | 92.4% | –
8 | NC(N)=NCCC[C@H](N)C(=O)NCC(=O)N[C@@H](CC(=O)O)C(=O)O [PCM-0215176] | 9.4% | –
9 | CCCC(=O)OCOC(=O)C1=C(C)NC(C)=C(C(=O)OC)C1c1cccc(Cl)c1Cl (centres unmarked) [PCM-0095244] | 18.7% | –
10 | N[C@@H](CSCCB(O)O)C(=O)O [PCM-0215605] | -5.4% | –
11 | CC(=O)O[C@H]1C(=O)[C@]2(C)[C@H](O)C[C@H]3OC[C@@]3(OC(C)=O)[C@H]2[C@H](OC(=O)c2ccccc2)[C@]2(O)C[C@H](OC(=O)[C@H](O)[C@@H](NC(=O)c3ccccc3)c3ccccc3)C(C)=C1C2(C)C [PCM-0216508] | 16.2% | –
12 | CCC[C@@H]1C[C@@H](C(=O)N[C@@H]([C@H]2O[C@H](SC)[C@H](O)[C@@H](O)[C@H]2O)[C@@H](C)O)N(C)C1 [PCM-0095227] | -4.7% | –
13 | C/C(=C\c1csc(C)n1)[C@@H]1C[C@@H]2O[C@@H]2CCC[C@H](C)[C@H](O)[C@@H](C)C(=O)C(C)(C)[C@@H](O)CC(=O)O1 [PCM-0095086] | – | 1.6%
14 | Cc1cc(Nc2ncc3c(n2)N(C)C(=O)N(c2cc(NC(=O)c4cccc(C(F)(F)F)c4)ccc2C)C3)n(C)n1 [PCM-0215636] | 104% | –
15 | CC1(C)CC(=O)c2c(C(F)(F)F)nn(-c3ccc(C(N)=O)c(NC4CCC(OC(=O)CN)CC4)c3)c2C1 (centres unmarked) [PCM-0214703] | 1.6% | –
16 | OCCOc1ccc(/C(=C(/CCCl)c2ccccc2)c2ccccc2)cc1 [PCM-0214796] | 73.9% | –
17 | CC(C)c1cc(C(=O)N2Cc3ccc(CN4CCN(C)CC4)cc3C2)c(O)cc1O [PCM-0095012] | -6.2% | –
18 | O=c1[nH]c(=O)n(C2CCCO2)cc1F (centres unmarked) [PCM-0094899] | -3.1% | –
19 | C[C@]12C=CC(=O)N[C@@H]1CC[C@@H]1[C@@H]2CC[C@]2(C)[C@@H](C(=O)Nc3cc(C(F)(F)F)ccc3C(F)(F)F)CC[C@@H]12 [PCM-0214606] | -4.7% | –
20 | CC(=O)O[C@@H]1C[C@@]23C[C@@]24CC[C@H](O[C@@H]2OC[C@@H](O)[C@H](O)[C@H]2O)C(C)(C)[C@@H]4CC=C3[C@]2(C)C[C@@H]3OC4(C[C@@H](C)[C@@H]3[C@@]12C)OC(O)C1(C)OC41 (some centres unmarked) [PCM-0216175] | -6.2% | –
21 | c1ccc2[nH]c(-c3cscn3)nc2c1 [PCM-0086067] | -17.1% | –
22 | CCc1c(C(=O)C(N)=O)c2c(OCC(=O)O)cccc2n1Cc1ccccc1 [PCM-0094894] | -16.3% | –
23 | CCOC(=O)c1c(CSc2ccccc2)n(C)c2cc(Br)c(O)c(CN(C)C)c12 [PCM-0095296] | 10.1% | –

Row | SMILES | inhibition at 10 µM [1] | inhibition at 10 µM (read-out: BTK inhibition (%))
24 | Cc1cncc(CN2CCC(=C3c4ccc(Cl)cc4CCc4cccnc43)CC2)c1 [PCM-0095542] | -7.6% | –
25 | CN(C)CCOC(c1ccccc1)c1ccccc1 [PCM-0065230] | 2.1% | –
26 | Cc1ccc(NCCN(C)CCNc2ccnc3cc(Cl)ccc23)c2c(=O)c3ccccc3sc12 [PCM-0215874] | 6.8% | –
27 | COc1c(C)cnc(Cn2cnc3c(Cl)nc(N)nc32)c1C [PCM-0095047] | -10.3% | –
28 | CCCCCCCCCC[C@H](C(=O)O)[C@]1(C(=O)O)CCC(=O)O1 [PCM-0215979] | 17.8% | –
29 | Nc1[nH]c(=O)nc2c1ncn2[C@@H]1O[C@H](CO)[C@@H](O)[C@H]1O [PCM-0216517] | -11.6% | –
30 | CC(=O)O/N=C1/C(c2c(O)[nH]c3cc(Br)ccc23)=Nc2ccccc21 [PCM-0215536] | 60.7% | –
31 | CCOc1nc2cccc(C(=O)O)c2n1Cc1ccc(-c2ccccc2-c2noc(=O)[nH]2)cc1 [PCM-0095534] | -3.1% | –
32 | CCc1c(C(=O)NCCc2ccc(N3CCCCC3)cc2)[nH]c2ccc(Cl)cc12 [PCM-0214697] | 2.3% | –
33 | CSCCNc1nc(SCCC(F)(F)F)nc2c1ncn2[C@@H]1O[C@H](COP(=O)(O)OP(=O)(O)C(Cl)(Cl)P(=O)(O)O)[C@@H](O)[C@H]1O [PCM-0215886] | -50.2% | –
34 | CCOC(=O)c1ccc(N2NC(=O)/C(=C/c3ccc([N+](=O)[O-])o3)C2=O)cc1 [PCM-0095807] | 64.9% | –
35 | C[C@H](CSC(=O)c1ccccc1)C(=O)N1C[C@@H](Sc2ccccc2)C[C@H]1C(=O)O [PCM-0216252] | -43.2% | –
36 | Cc1ccc(-n2sc(=O)n(Cc3ccc(F)cc3)c2=O)cc1 [PCM-0095367] | -12.5% | –
37 | CC(C)[C@H]1C(=O)N[C@@H](CCCN=C(N)N)C(=O)NCC(=O)N[C@@H](CC(=O)O)C(=O)N[C@H](Cc2ccccc2)C(=O)N1C [PCM-0095583] | -6.9% | –
38 | CN(C)Cc1ccc(S(=O)(=O)n2ccc(/C=C/C(=O)NO)c2)cc1 [PCM-0214759] | 9.3% | –
39 | O=C(O)C[C@H](O)C[C@H](O)/C=C/c1c(C2CC2)nc2ccccc2c1-c1ccc(F)cc1 [PCM-0095199] | -36.6% | –
40 | CC(C)(C)C1CCC(CC2=C(O)c3ccccc3C(=O)C2=O)CC1 (centres unmarked) [PCM-0214772] | 3.1% | –
41 | CN1CCCN(C(=O)c2cccc(-c3ccc(/C=C4/C(=O)Nc5ccc(Cl)cc54)o3)c2)CC1 [PCM-0215321] | 26.9% | –
42 | COC(=O)[C@@H](N)CCCN=C(N)N[N+](=O)[O-] [PCM-0215172] | 19.6% | –
43 | Cc1cc(C)c(CN2CCc3c(Cl)cc(-c4c(C)noc4C)c(Cl)c3C2=O)c(=O)[nH]1 [PCM-0215872] | -8.5% | –
44 | NC(=O)[C@H](CCCN=C(N)CCl)NC(=O)c1ccccc1 [PCM-0215816] | -5.5% | –
45 | CC(C)C[C@@H]1NC(=O)[C@@H](C(C)C)NC(=O)[C@@H]2CCCN2C(=O)[C@@H](CC(=O)O)NC(=O)[C@@H](Cc2c[nH]c3ccccc23)NC1=O [PCM-0215512] (cyclo(L[dW][dD]P[dV])) | -5.4% | –
46 | O=C(CCc1ccc(O)cc1)c1c(O)cc(O[C@@H]2O[C@H](CO)[C@@H](O)[C@H](O)[C@H]2O)cc1O [PCM-0216363] | 17.8% | –

Row | SMILES | inhibition at 10 µM [1] | inhibition at 10 µM (read-out: BTK inhibition (%))
47 | O=c1cc(-c2ccc(O[C@@H]3O[C@H](CO)[C@@H](O)[C@H](O)[C@H]3O)cc2)oc2cc(O)c([C@@H]3O[C@H](CO)[C@@H](O)[C@H](O)[C@H]3O[C@@H]3OC[C@H](O)[C@H](O)[C@H]3O)c(O)c12 [PCM-0216482] | -22.4% | –
48 | COC(=O)c1cc(OC)c(O)c(OC)c1 [PCM-0215058] | -17.1% | –
49 | C=C[C@H]1CN2CC[C@@]3(C(=O)Nc4ccccc43)[C@@H]2C[C@@H]1/C(=C\OC)C(=O)OC [PCM-0216491] | -7.7% | –
50 | O=C(O)C1=CO[C@@H](O[C@@H]2O[C@H](CO)[C@@H](O)[C@H](O)[C@H]2O)[C@@H]2C(CO)=CC[C@H]12 [PCM-0086855] | -2.8% | –
51 | CNC1CCCN(c2c(F)cc3c(=O)c(C(=O)O)cn(C4CC4)c3c2OC)C1 (centres unmarked) [PCM-0095230] | -5.4% | –
52 | C=C1CC[C@H]2O[C@]2(C)CC[C@@H]2[C@@H]1CC2(C)C [PCM-0214945] | -11.7% | –
53 | CC1(C)C[C@@H]1C(=O)N/C(=C\CCCCSC[C@H](N)C(=O)O)C(=O)O [PCM-0216257] | -10% | –
54 | C[C@H]1[C@H](C)CC[C@]2(C(=O)O[C@@H]3O[C@H](CO[C@@H]4O[C@H](CO)[C@@H](O[C@@H]5O[C@@H](C)[C@H](O)[C@@H](O)[C@H]5O)[C@H](O)[C@H]4O)[C@@H](O)[C@H](O)[C@H]3O)CC[C@]3(C)C(=CC[C@@H]4[C@@]5(C)C[C@@H](O)[C@H](O)[C@@](C)(CO)[C@@H]5[C@H](O)C[C@]43C)[C@H]12 [PCM-0215102] | 10.1% | –
55 | COc1cc2nccc(Oc3ccc(NC(=O)Nc4ccc(F)cc4F)c(F)c3)c2cc1OC [PCM-0094996] | 4.8% | –
56 | Cc1ccc(-c2c(-c3nn(C)c4ncnc(N5CC[C@H](N6CCCCC6)C5)c34)cnn2C)cc1 [PCM-0095421] | -2.3% | –
57 | COc1ccc(C(=O)N2CCCC2=O)cc1 [PCM-0064527] | -4.7% | –
58 | CC(C)C[C@H](NC(=O)[C@H](CCc1ccccc1)NC(=O)CN1CCOCC1)C(=O)N[C@@H](Cc1ccccc1)C(=O)N[C@@H](CC(C)C)C(=O)[C@@]1(C)CO1 [PCM-0095475] | -17.1% | –
59 | C/C(=C\c1csc(C)n1)[C@@H]1C[C@@H]2O[C@]2(C)CCC[C@H](C)[C@H](O)[C@@H](C)C(=O)C(C)(C)[C@@H](O)CC(=O)O1 [PCM-0094998] | -9.3% | –
60 | OC(Cn1cncn1)(Cn1cncn1)c1ccc(F)cc1F [PCM-0086230] | 9.3% | –
61 | CN1CCN(CCCNc2ncc(Cl)c(-c3cc4c(C(=O)NC5CC5)cccc4s3)n2)CC1 [PCM-0215458] | -10.8% | –
62 | CN(C)Cc1ccc(-c2nc3cccc4c3n2CCNC4=O)cc1 [PCM-0095220] | 4.8% | –
63 | O=C(Nc1ccncc1)c1cc([N+](=O)[O-])ccc1Cl [PCM-0064887] | 10.9% | –
64 | Cc1cc(N2C[C@@H](C)N[C@@H](C)C2)ncc1-c1ccc(-c2nc3c(ccn3C)c(=O)[nH]2)cc1 [PCM-0215615] | 7.7% | –
65 | OC[C@@H](O)[C@@H](O)[C@@H](O)[C@@H](O)CO [PCM-0216285] | -17% | –
66 | Cc1ccc(C(C)C)c(O)c1 [PCM-0215949] | 23.2% | –
67 | OCc1ccccc1O[C@@H]1O[C@H](CO)[C@@H](O)[C@H](O)[C@H]1O [PCM-0086703] | -7.6% | –
68 | COc1cc2nccc(Oc3ccc(NC(=O)Nc4cc(C)on4)c(Cl)c3)c2cc1OC [PCM-0094927] | 84.1% | –
